The source of these data is patent US20260294928A1, “BTK INHIBITOR FOR TREATING MULTIPLE SCLEROSIS” (BIOGEN MA INC., priority 2023, published 2026).

A short description of data set [1]: Part 1 PK study of BIIB091 formulations and regimens in healthy subjects. Format: in vivo, human. As for the experimental part:
(§1) In a single center, open-label study, several formulations and treatment regimens were explored to reduce pharmacokinetic (PK) variability and achieve steady state Ctrough>221 ng/mL while limiting the drug exposure (Cmax). The study included 3 parts.
(§2) IR tablet (50 mg) was tested in 19 healthy subjects at different dose levels (150, 250 and 350 mg) and in the fed (moderate fat and high fat) and fasted state and as a divided daily dose (12 h apart). Subject were treated with BIIB091 up to 4 periods. To facilitate comparisons between different regimens, subjects were randomized into 2 groups (Group 1 and Group 2) pre-dose on Day 1 in Periods 1, 3 and 4. Period 2 was utilized as a reference period, where all subjects were dosed with the BIIB091 IR DiC (drug in capsule).

The nature of data set [2]: Part 1 safety and tolerability in healthy subjects. It counts as in vivo, human. The conditions noted are these: all regimens tested, Part 1 (150, 250, 350 mg; fed, fasted, divided dose). Here is the method: as §1, §2
For data set [3], the target named is CYP3A4 (Homo sapiens, UniProt P08684). Description: Part 2 PK of BIIB091 with CYP3A4 inhibitor itraconazole, fed. It counts as in vivo. The conditions noted are these: role: substrate, 200 mg BIIB091 IR tablet. Here is the method: (§3) A new cohort of 12 healthy male and female (non pregnant and non-lactating) subjects were enrolled and dosed. Subjects were randomized into two groups of 6 subjects, to receive the regimen sequence MNO across 3 study periods (Group 1) or regimen sequence MNP across 3 study periods (Group 2). Both groups were dosed in the fed state in Periods 1 and 2, i.e. BIIB091 alone in the fed state in Period 1, and BIIB091 with the CYP3A4 inhibitor itraconazole in the fed state in Period 2. For the PPI assessment in Period 3, subjects were dosed with BIIB091 co-administered with rabeprazole in the fasted or fed state in order to assess PK under each of these conditions.
Sequence of CYP3A4 (P08684 whole entry): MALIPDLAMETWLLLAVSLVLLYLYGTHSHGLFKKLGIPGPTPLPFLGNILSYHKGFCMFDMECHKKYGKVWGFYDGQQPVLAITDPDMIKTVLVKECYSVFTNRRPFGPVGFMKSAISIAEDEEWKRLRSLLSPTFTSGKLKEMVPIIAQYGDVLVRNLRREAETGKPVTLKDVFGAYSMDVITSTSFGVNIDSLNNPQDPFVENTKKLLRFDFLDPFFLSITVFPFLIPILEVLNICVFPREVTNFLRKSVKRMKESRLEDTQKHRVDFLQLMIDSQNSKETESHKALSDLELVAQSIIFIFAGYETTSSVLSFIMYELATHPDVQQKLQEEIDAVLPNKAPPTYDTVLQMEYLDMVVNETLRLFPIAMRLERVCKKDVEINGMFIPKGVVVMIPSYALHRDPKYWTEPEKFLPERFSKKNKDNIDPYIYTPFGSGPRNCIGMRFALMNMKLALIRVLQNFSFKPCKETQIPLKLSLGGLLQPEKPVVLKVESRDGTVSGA

Data set [4] is described as follows: Part 2 PK of BIIB091 with PPI rabeprazole, fasted or fed. Format: in vivo, human. The settings on record: 200 mg BIIB091 IR tablet with rabeprazole 20 mg. As for the experimental part:
as §3

Data set [5] is described as follows: Part 3 multiple dose PK, 250 mg BID x 7 days with moderate fat meal. Format: in vivo, human. The settings on record: 250 mg BID 12 h apart x 7 days. As for the experimental part: (§4) 250 mg BIIB091 was dosed in a new cohort of 10 healthy subjects twice a day (BID) 12 h apart with a moderate fat meal for 7 days. […] Geomean Ctau (CV %) was 407 (48.3%) ng/mL which exceeded the target of >221 ng/mL, with 9/10 subjects achieving the target.

Data set [6] relates to CD69 upregulation on total B cells (CD19+). Description: CD69 inhibition on ex vivo stimulated total B cells (CD19+), Part 3. Format: in vivo, human. The conditions noted are these: for inhibition at 250 mg: Homo sapiens, B-cell, 250 mg BID. Here is the method: as §4

SMILES strings stand for the structures. Where two headings read alike, the source gives them in different places. A value given as a limit tells only on which side of the number the result lay.

As a reminder, the inhibition is the share of the control response that was lost under treatment. Consider `Cn1cc(Nc2nccc(-c3ccc4c(c3)CN(C3COC3)CC[C@H]4NC(=O)c3cn(C(C)(C)C)nn3)n2)cn1` [Compound 1, (R)-1-(tert-butyl)-N-(8-(2-((1-methyl-1H-pyrazol-4-yl)amino)pyrimidin-4-yl)-2-(oxetan-3-yl)-2,3,4,5-tetrahydro-1H-benzo[c]azepin-5-yl)-1H-1,2,3-triazole-4-carboxamide], for which, in data set [1] (high fat food), the “C (Cmax) with HF food” value is listed as “reduced” and the “T (Tmax) with HF food” value is listed as “delayed”. In addition, in data set [1] (moderate fat meal), the “AUC with MF meal” value is listed as “similar”, the “C with MF meal” value was “similar” and the “Tmax with MF meal compared to HF” value is reported as “less of a delay in Tmax compared to high fat”. Also, the safety and tolerability entry in data set [2] is “generally safe and well tolerated”. The CYP3A4 substrate result in data set [3] (fed, with itraconazole 200 mg) is reported as “moderate CYP3A4 substrate”. Besides, the “BIIB091 exposure with CYP3A4 inhibitor co-administration” value in data set [3] (inhibitor itraconazole 200 mg, moderate-fat fed) is “increased”. In addition, the “BIIB091 bioavailability with PPI co-administration, fasted state” value in data set [4] (fasted) is on record as “decreased”. Besides, in data set [4] (moderate-fat fed), the “BIIB091 bioavailability with PPI together with food, compared with fasted condition” value is listed as “increased”. In addition, in data set [5], the “accumulation ratio for AUCtau” value is 1.75, the “accumulation ratio for Cmax” value is given as 1.49 and the “subjects achieving the target Ctau of >221 ng/mL” value was 9/10. The concentration at 12 h in data set [5] (human, in vivo, po, read-out: Geomean Ctau (CV %)) came out at 407 ng/mL. In addition, the “CD69 inhibition at 24 h post final dose” value in data set [6] (250 mg BID x 7 days, 24 h post final dose) was “returned to baseline”. Moreover, the inhibition at 250 mg in data set [6] (12 h post-dose, day 1, read-out: CD69 mean inhibition) was found to be 86.8%. Also, the inhibition at 250 mg in data set [6] (12 h post-dose, day 7, read-out: CD69 mean inhibition) came to 85.4%. For the same molecule, in data set [6] (Day 1 and 7, from 1 h to 8 h post-dose, ex vivo stimulated B cells, read-out: CD69 inhibition range), the inhibition at 250 mg fell in the range of 96.5 to 99.2%. Further, the inhibition at 250 mg in data set [6] (Day 1 and 7, from 1 h to 8 h post-dose, ex vivo stimulated B cells, read-out: mean inhibition of CD69 upregulation from Day 1 pre-dose baseline) was more than 90%.
